Paper PMC6522510 (Nature Communications, 2019)

Tests used:
Design in all cases: species or system AML cell lines (8); Primary HTS, single concentration about 10 uM, Cell Titer Glo viability; log10 luminescence, per cent inhibition relative to cycloheximide control
Details in all cases: 72 h, relative to cycloheximide control, log10 luminescence; inhibitor
[1] = system: CHRF288-11
[2] = system: CMK
[3] = system: CMS
[4] = system: M07e
[5] = system: ML-2
[6] = system: MOLM-13
[7] = system: MV4-11
[8] = system: U937

CCn1c(-c2nonc2N)nc2c(C#CC(C)(C)O)ncc(OC3CCNCC3)c21 [SJ000573340-1, N2972-34-A1]
CHRF288-11 %inh [1]: 8.441%
CMK %inh [2]: 1.4%
CMS %inh [3]: 5.982%
M07e %inh [4]: 6.128%
ML-2 %inh [5]: 4.911%
MOLM-13 %inh [6]: 25.8%
MV4-11 %inh [7]: 14.73%
U937 %inh [8]: 50.59%

CCN(CC)Cc1ccc(Nc2nccc(-c3cnn4ncccc34)n2)cc1 [SJ000573341-1, U20497/10/4]
CHRF288-11 %inh [1]: 61.01%
CMK %inh [2]: 90.23%
CMS %inh [3]: 102.8%
M07e %inh [4]: 122.1%
ML-2 %inh [5]: 56.99%
MOLM-13 %inh [6]: 89.9%
MV4-11 %inh [7]: 77.95%
U937 %inh [8]: 77.76%

CCn1c(-c2nonc2N)nc2ccc(F)cc21 [SJ000573344-1, U17602/50/1]
CHRF288-11 %inh [1]: 4.16%
CMK %inh [2]: -0.9351%
CMS %inh [3]: -1.218%
M07e %inh [4]: 1.126%
ML-2 %inh [5]: -0.6145%
MOLM-13 %inh [6]: 3.561%
MV4-11 %inh [7]: -0.453%
U937 %inh [8]: -1.756%

O=C(NCC1CC1)c1ccc(-c2cccc(C(=O)NC3CC3)c2)cc1 [SJ000573345-1, R5419/155/1]
CHRF288-11 %inh [1]: -1.419%
CMK %inh [2]: 6.153%
CMS %inh [3]: 0.2631%
M07e %inh [4]: 0.9268%
ML-2 %inh [5]: 0.3479%
MOLM-13 %inh [6]: 4.094%
MV4-11 %inh [7]: 3.005%
U937 %inh [8]: 0.894%

Cc1ccc(C(=O)NC2CCCCC2)cc1-c1ccc(C(=O)NCC2CC2)cc1 [SJ000573346-1, R5311/184/6]
CHRF288-11 %inh [1]: 2.896%
CMK %inh [2]: 5.045%
CMS %inh [3]: -0.3831%
M07e %inh [4]: -0.328%
ML-2 %inh [5]: -1.695%
MOLM-13 %inh [6]: 6.287%
MV4-11 %inh [7]: 6.399%
U937 %inh [8]: 4.929%

Cc1ccc2c(-c3ccnc(Nc4ccc5c(c4)OCCO5)n3)c(-c3ccc(C(F)(F)F)cc3)nn2n1 [SJ000573347-1, U19201/9/2]
CHRF288-11 %inh [1]: 4.555%
CMK %inh [2]: -1.247%
CMS %inh [3]: -0.8147%
M07e %inh [4]: -1.129%
ML-2 %inh [5]: -1.284%
MOLM-13 %inh [6]: 1.079%
MV4-11 %inh [7]: -1.366%
U937 %inh [8]: 1.52%

FC(F)(F)CNc1nccc(-c2cnn3ncccc23)n1 [SJ000573348-1, U14929/198/1]
CHRF288-11 %inh [1]: 8.25%
CMK %inh [2]: 5.414%
CMS %inh [3]: 9.976%
M07e %inh [4]: 2.938%
ML-2 %inh [5]: 3.221%
MOLM-13 %inh [6]: 10.23%
MV4-11 %inh [7]: 26.7%
U937 %inh [8]: 21.18%

NC(=O)c1ccc2c(-c3ccnc(NCCCO)n3)c(-c3ccc(F)cc3)nn2c1 [SJ000573349-1, U15445/74/1]
CHRF288-11 %inh [1]: 6.72%
CMK %inh [2]: 3.481%
CMS %inh [3]: -1.938%
M07e %inh [4]: 8.993%
ML-2 %inh [5]: 0.07673%
MOLM-13 %inh [6]: 4.269%
MV4-11 %inh [7]: 0.006279%
U937 %inh [8]: 3.919%

CC(=O)Nc1cccc(C#Cc2cncnc2Nc2ccc(OCc3cccc(F)c3)c(Cl)c2)n1 [SJ000573352-1, U17741/29/4]
CHRF288-11 %inh [1]: -2.536%
CMK %inh [2]: 2.98%
CMS %inh [3]: -3.127%
M07e %inh [4]: -1.039%
ML-2 %inh [5]: -1.648%
MOLM-13 %inh [6]: 1.614%
MV4-11 %inh [7]: 2.175%
U937 %inh [8]: 0.4059%

CCc1ccc(Oc2nccc(-c3c(-c4ccc(F)cc4)ncn3C3CCNCC3)n2)cc1 [SJ000573353-1, JB42215-197B1]
CHRF288-11 %inh [1]: 58.08%
CMK %inh [2]: 9.775%
CMS %inh [3]: 2.88%
M07e %inh [4]: 7.09%
ML-2 %inh [5]: 3.582%
MOLM-13 %inh [6]: 6.147%
MV4-11 %inh [7]: 7.571%
U937 %inh [8]: 8.087%
